Data as given in the supplement of paper PMC12317010.
Structures can show the parent of a compound that is named as a salt.

Assay: collision cross section in nitrogen (drift tube, single-field); higher = larger gas-phase ion size
[1] = ion type: [M+H], ion source: APCI, ion mode: Positive
[2] = ion type: [M+H], ion source: ESI, ion mode: Positive
[3] = ion type: [M-H], ion source: ESI, ion mode: Negative
[4] = ion type: [M+Na], ion source: ESI, ion mode: Positive
[5] = ion type: [M+], ion source: APCI, ion mode: Positive
[6] = ion source: APCI, ion mode: Positive, ion type: [M]+ (permanent cation)
[7] = ion source: ESI, ion mode: Positive, ion type: [M]+ (permanent cation)
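Also: chemical standards at 10 µM analysed by drift tube IMS-QTOF MS in about 3.95 torr nitrogen, mean of duplicate injections differing ≤1%, mass error below 10 ppm.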

Row | SMILES | collision cross section in nitrogen [1] | collision cross section in nitrogen [2] | collision cross section in nitrogen [3] | collision cross section in nitrogen [4] | also measured
1 | CN(C)C(=N)NC(=N)N [Metformin] | 125.1 Å² | 125.7 Å² |  |  | 
2 | O=C(O)c1cc(N=Nc2ccc(S(=O)(=O)Nc3ccccn3)cc2)ccc1O [Sulfasalazine] | 203.9 Å² | 203.6 Å² | 197.5 Å² |  | 
3 | CCN(CC)c1ccc(N=Nc2ccccc2)cc1 [C.I. Solvent Yellow 56] | 165.9 Å² | 165.9 Å² |  |  | 
4 | Nc1ccc(S(=O)(=O)Nc2nccs2)cc1 [Sulfathiazole sodium] | 153.3 Å² | 153.6 Å² | 154.1 Å² | 167.2 Å² | 
5 | O=S(=O)(O)c1ccc(N=Nc2c(O)ccc3cc(S(=O)(=O)O)ccc23)cc1 [FD&C Yellow 6] |  |  | 203.1 Å² |  | 
6 | NC(=O)N1C(=O)C(C(=O)c2cc(Cl)cs2)c2cc(F)c(Cl)cc21 (stereo not drawn) |  |  | 173.7 Å² |  | 
7 | Nc1c(Cl)cc(Cl)cc1[N+](=O)[O-] [2,4-Dichloro-6-nitroaniline] |  |  | 131.4 Å² |  | 
8 | CC(C)(O)c1ccc(CNC(=O)c2cccnc2Oc2ccc(F)cc2)cc1 | 201.1 Å² |  | 196.7 Å² | 190.4 Å² | 
9 | O=P(OCCCl)(OCCCl)OCCCl [Tris(2-chloroethyl) phosphate] |  |  |  | 160.2 Å² | 
10 | Oc1ccccc1-c1ccccc1 [Sodium 2-phenylphenate tetrahydrate] |  |  | 136.6 Å² |  | 
11 | CCOC(=O)O[C@H](C)OC(=O)c1ccc2c(c1)cc(C(=O)NC1CCN(C(C)C)CC1)n2Cc1cc(-c2ccc(Cl)s2)on1 [AVE6324] | 268 Å² | 267.7 Å² | 269.8 Å² | 276.4 Å² | 
12 | NC(=O)N(O)[C@@H]1C=C[C@H](Oc2cccc(Oc3ccc(F)cc3)c2)C1 |  |  |  | 191.1 Å² | 
13 | CCOP(=S)(OCC)SCS(=O)(=O)C(C)(C)C [Terbufos sulfone] |  |  |  | 171.3 Å² | 
14 | CCCCN(CCCC)SN(C)C(=O)Oc1cccc2c1OC(C)(C)C2 [Carbosulfan] | 188.3 Å² | 188.3 Å² |  | 204.7 Å² | 
15 | C=COCCOCCOCCOC=C [3,6,9,12-Tetraoxatetradeca-1,13-diene] |  |  |  | 143.4 Å² | 
16 | O=C(Nc1ccccc1)N(Cc1ccc(Cl)cc1)C1CCCC1 [Pencycuron] | 180.7 Å² | 180.5 Å² | 185.7 Å² | 192.8 Å² | 
17 | COC(=O)C1=C(C)NC(C)=C(C(=O)OCCN(C)Cc2ccccc2)C1c1cccc([N+](=O)[O-])c1 (stereo not drawn) [Nicardipine hydrochloride] | 213 Å² | 212.6 Å² | 214.2 Å² | 211.2 Å² | collision cross section in nitrogen [5]: 208.8 Å²
18 | c1csc(-c2ccc(-c3cccs3)s2)c1 [alpha-Terthiophene] |  |  |  |  | collision cross section in nitrogen [5]: 146.4 Å²
19 | CCCCC(CC)COC(=O)c1ccccc1C(=O)OCC(CC)CCCC (stereo not drawn) [Di(2-ethylhexyl) phthalate] |  |  |  | 215.9 Å² | 
20 | O=P(O)(Oc1ccccc1)Oc1ccccc1 [Diphenyl phosphate] |  | 156.5 Å² | 153.6 Å² |  | 

Row | SMILES | collision cross section in nitrogen [1] | collision cross section in nitrogen [2] | collision cross section in nitrogen [3] | collision cross section in nitrogen [4] | also measured
21 | CO[C@H]1/C=C/O[C@@]2(C)Oc3c(C)c(O)c4c(O)c(c(/C=N/N5CCN(C)CC5)c(O)c4c3C2=O)NC(=O)/C(C)=C\C=C\[C@H](C)[C@H](O)[C@@H](C)[C@@H](O)[C@@H](C)[C@H](OC(C)=O)[C@@H]1C [Rifampicin] |  | 282.3 Å² |  | 279 Å² | 
22 | OC[C@@H](O)[C@@H](O[C@@H]1O[C@H](CO)[C@H](O)[C@H](O)[C@H]1O)[C@H](O)[C@@H](O)CO [D-Lactitol monohydrate] |  |  | 171.4 Å² | 175.3 Å² | 
23 | CCCC[N+](C)(CCCC)CCCC [N,N-Dibutyl-N-methylbutan-1-aminium chloride] |  |  |  |  | collision cross section in nitrogen [6]: 153.8 Å²; collision cross section in nitrogen [7]: 154.5 Å²
24 | CCCCCCCCCCCCCCCCCC[N+](C)(C)C [N,N,N-Trimethyloctadecan-1-aminium chloride] |  |  |  |  | collision cross section in nitrogen [6]: 200.2 Å²; collision cross section in nitrogen [7]: 200.7 Å²
25 | C=C1C[C@]23C[C@@]1(O)CC[C@H]2[C@@]12C=C[C@H](O)[C@@](C)(C(=O)O1)[C@H]2[C@@H]3C(=O)O [Gibberellic acid] |  |  | 176.4 Å² |  | 
26 | CCOP(=S)(S)OCC [O,O′-Diethyl hydrogen dithiophosphate] |  |  | 135 Å² |  | 
27 | CCOP(=S)(OCC)SCCS(=O)(=O)CC [Disulfoton sulfone] |  |  |  | 166 Å² | 
28 | CC1=C(C#N)C(=O)N(C)C(=O)C1 [1,2-Dihydro-6-hydroxy-1,4-dimethyl-2-oxonicotinonitrile] |  | 133.8 Å² | 131.2 Å² | 144.6 Å² | 
29 | Sc1nc2ccccc2s1 [Sodium 2-mercaptobenzothiolate] |  |  | 127.7 Å² |  | 
30 | CNCc1cc(F)ccc1Oc1ccc(Cl)c(Cl)c1 |  | 173.4 Å² |  |  | 
31 | CCCOC(=O)c1ccc(O)cc1 [Propylparaben] |  |  | 142.9 Å² |  | 
32 | CCCCCCCCCCCCN1CCOCC1 [4-Dodecylmorpholine] | 176.3 Å² | 176.3 Å² |  |  | 
33 | O=C(O)[C@H](O)[C@@H](O)[C@H](O)[C@H](O)CO [D-Gluconic acid] |  |  | 133.2 Å² |  | 
34 | COc1cc(OC)c(C(=O)CCCN2CCCC2)c(OC)c1 [Buflomedil hydrochloride] | 176 Å² | 176.1 Å² |  | 178.9 Å² | 
35 | CNC(=C[N+](=O)[O-])NCCSCc1csc(CN(C)C)n1 [Nizatidine] | 171.3 Å² | 171 Å² | 181.9 Å² | 178.1 Å² | 
36 | CCC(=O)O[C@H]1C[C@@H]2CC[C@@]1(C)C2(C)C [Isobornyl propanoate] |  |  | 155.8 Å² |  | 
37 | CC(CN1c2ccccc2Sc2ccccc21)N(C)C (stereo not drawn) [Promethazine hydrochloride] | 163.3 Å² | 163.7 Å² |  | 172.5 Å² | 
38 | Cc1ccc2ncccc2c1 [6-Methylquinoline] | 125.7 Å² | 125.8 Å² |  |  | collision cross section in nitrogen [5]: 124.3 Å²
39 | CC(C)C[C@H](NC(=O)OCC1c2ccccc2-c2ccccc21)C(=O)O [N-(9-Fluorenylmethoxycarbonyl)-L-leucine] |  |  |  | 184.7 Å² | 
40 | Oc1ccc2ccccc2c1 [2-Naphthalenol] |  |  | 128.7 Å² |  | 

Row | SMILES | collision cross section in nitrogen [1] | collision cross section in nitrogen [2] | collision cross section in nitrogen [3] | collision cross section in nitrogen [4] | also measured
41 | CC1(C)[C@@H](O[C@H]2O[C@H](C(=O)O)[C@@H](O)[C@H](O)[C@H]2O[C@@H]2O[C@H](C(=O)O)[C@@H](O)[C@H](O)[C@H]2O)CC[C@]2(C)[C@H]3C(=O)C=C4[C@@H]5C[C@@](C)(C(=O)O)CC[C@]5(C)CC[C@@]4(C)[C@]3(C)CC[C@@H]12 [Glycyrrhizin] |  | 288.9 Å² | 281.7 Å² | 296.2 Å² | 
42 | c1ccc(N=Nc2ccccc2)cc1 [Azobenzene] | 139.5 Å² |  |  |  | 
43 | CCCCCCCOC(=O)c1ccccc1C(=O)OCCCCCCC [Diheptyl phthalate] |  |  |  | 209.9 Å² | 
44 | COc1cc(CCC(=O)CC(=O)CCc2ccc(O)c(OC)c2)ccc1O [Tetrahydrocurcumin] |  |  | 184.8 Å² | 181.2 Å² | 
45 | Cc1nnc(-c2ccccc2)c(=O)n1N [Metamitron] | 144.9 Å² | 145.2 Å² |  |  | 
46 | C#CCOS(=O)OC1CCCCC1Oc1ccc(C(C)(C)C)cc1 (stereo not drawn) [Propargite] |  |  |  | 186.9 Å² | 
47 | CN1C(=O)N(c2ccccc2Br)Cc2cnc(Nc3ccc4c(c3)OCC(CO)O4)nc21 (stereo not drawn) | 219.5 Å² | 218.9 Å² | 220.2 Å² | 219.1 Å² | collision cross section in nitrogen [5]: 215.4 Å²
48 | Oc1cccnc1 [3-Pyridinol] |  | 117.3 Å² | 114.6 Å² |  | 
49 | C=CCC1=C(C)[C@@H](OC(=O)[C@@H]2[C@@H](C=C(C)C)C2(C)C)CC1=O [S-Bioallethrin] |  |  |  | 184.5 Å² | 
50 | CNC[C@H](O)c1cccc(O)c1 [(-)-Phenylephrine hydrochloride] |  |  | 138.7 Å² |  | 
51 | N[C@@H](Cc1ccc(O)c(O)c1)C(=O)O [Levodopa] |  |  | 141.6 Å² |  | 
52 | OCCc1ccncc1 [2-(Pyridin-4-yl)ethanol] | 124.6 Å² | 124.3 Å² |  |  | 
53 | CCCCC(CC)COP(=O)(Oc1ccccc1)Oc1ccccc1 (stereo not drawn) [2-Ethylhexyl diphenyl phosphate] |  |  |  | 200.9 Å² | 
54 | O=c1n(CC2CO2)c(=O)n(CC2CO2)c(=O)n1CC1CO1 (stereo not drawn) [Tris(2,3-epoxypropyl)isocyanurate] | 158.6 Å² | 160.1 Å² |  | 163.2 Å² | 
55 | CCCC[N+]1(C)CCCC1 [1-Butyl-1-methylpyrrolidinium chloride] |  |  |  |  | collision cross section in nitrogen [6]: 131.2 Å²; collision cross section in nitrogen [7]: 132.4 Å²
56 | CCCCCCCCCCCCCOS(=O)(=O)O [Sodium tridecyl sulfate] |  |  | 170 Å² |  | 
57 | O=C(O)c1cc(Br)c(O)c(Br)c1 [3,5-Dibromo-4-hydroxybenzoic acid] |  |  | 136.4 Å² |  | 
58 | CCc1cc(C(N)=S)ccn1 [Ethionamide] | 137.5 Å² |  | 135.2 Å² |  | 
59 | CC1(C)CN=C(NN=C(C=Cc2ccc(C(F)(F)F)cc2)C=Cc2ccc(C(F)(F)F)cc2)NC1 [Hydramethylnon] | 239.4 Å² | 240.6 Å² | 234.7 Å² | 250.1 Å² | collision cross section in nitrogen [5]: 226.3 Å²
60 | COCCc1ccc(OCC(O)CNC(C)C)cc1 (stereo not drawn) [Metoprolol] | 171.7 Å² | 172.1 Å² |  | 164 Å² | 
